Source: PubChem BioAssay AID330 (DTP/NCI, 2004)
“And” between values parts separate entries of the source, which are not always exact repeats. Identical values can stand only once. Inconclusive results and toxic doses are left out.

Tested on: P388 leukemia ip, CD2F1 mice, survival T/C
Test: NCI In Vivo Anticancer Drug Screen. Data for tumor model P388 Leukemia (intraperitoneal) in CD2F1 (CDF1) mice
Settings: endpoint: median survival time, higher = longer survival
In short: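 Mice carrying the transplanted tumor received test compound or vehicle. Survival was recorded in each group, and the value is the treated-group measurement divided by that of the vehicle-treated control group.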

[1] = dose: 60.0 mg/kg/injection, schedule: Q01DX005 (ip), vehicle: saline with Tween-80
[2] = dose: 50.0 mg/kg/injection, schedule: Q01DX009 (ip), vehicle: Klucel (hydroxypropylcellulose) (HPC)
[3] = dose: 100.0 mg/kg/injection, schedule: Q01DX009 (ip), vehicle: Klucel (hydroxypropylcellulose) (HPC)
[4] = dose: 200.0 mg/kg/injection, schedule: Q01DX009 (ip), vehicle: Klucel (hydroxypropylcellulose) (HPC)
[5] = dose: 25.0 mg/kg/injection, schedule: Q01DX009 (ip), vehicle: Klucel (hydroxypropylcellulose) (HPC)
[6] = dose: 50.0 mg/kg/injection, schedule: Q01DX005 (ip), vehicle: Klucel (hydroxypropylcellulose) (HPC)
[7] = dose: 100.0 mg/kg/injection, schedule: Q01DX005 (ip), vehicle: Klucel (hydroxypropylcellulose) (HPC)
[8] = dose: 200.0 mg/kg/injection, schedule: Q01DX005 (ip), vehicle: Klucel (hydroxypropylcellulose) (HPC)

Structure (SMILES): CC1CN(Cc2ccccc2)CCC1N1CCCCC1 (centres undefined)
- T/C (dose: 50.0 mg/kg/injection, schedule: Q01DX005 (ip), vehicle: saline): 99 % of control
- T/C (dose: 100.0 mg/kg/injection, schedule: Q01DX005 (ip), vehicle: saline): 100 % of control

Structure (SMILES): BrCc1ccccc1C[P+](c1ccccc1)(c1ccccc1)c1ccccc1
- T/C (dose: 1.5 mg/kg/injection, schedule: Q01DX009 (ip), vehicle: saline): 113 % of control
- T/C (dose: 3.13 mg/kg/injection, schedule: Q01DX009 (ip), vehicle: saline): 104 % of control

Structure (SMILES): CC(C)(C)[OH+][O-].[O-]c1ccc(Cl)cc1C=Nc1ccc(Cl)cc1[O-].[O]=[V]
- T/C (dose: 15.0 mg/kg/injection, schedule: Q01DX005 (ip), vehicle: saline with Tween-80): 100 % of control
- T/C (dose: 30.0 mg/kg/injection, schedule: Q01DX005 (ip), vehicle: saline with Tween-80): 100 % of control
- T/C [1]: 101 % of control and 93 % of control

Structure (SMILES): CC1(C)OC2OC(COC(=O)c3ccccc3)C(N3OC4C=CC3CC4)C2O1 (centres undefined)
- T/C (dose: 100.0 mg/kg/injection, schedule: Q04DX002 (ip), vehicle: Klucel (hydroxypropylcellulose) (HPC)): 103 % of control
- T/C (dose: 200.0 mg/kg/injection, schedule: Q04DX002 (ip), vehicle: Klucel (hydroxypropylcellulose) (HPC)): 103 % of control
- T/C (dose: 400.0 mg/kg/injection, schedule: Q04DX002 (ip), vehicle: Klucel (hydroxypropylcellulose) (HPC)): 102 % of control

Structure (SMILES): CCN(CC)C(=O)C(F)C(F)(F)C(F)(F)C(F)(F)C(F)(F)C(F)(F)C(F)(F)F (centres undefined)
- T/C [2]: 102 % of control
- T/C [3]: 101 % of control
- T/C [4]: 99 % of control

Structure (SMILES): Nc1ccc(S(=O)(=O)Nc2nc(/C=C/c3ccccc3)cc(-c3cc(/C=C/c4ccccc4)nc(NS(=O)(=O)c4ccc(N)cc4)n3)n2)cc1
- T/C [1]: 94 % of control
- T/C (dose: 120.0 mg/kg/injection, schedule: Q01DX005 (ip), vehicle: saline with Tween-80): 95 % of control
- T/C (dose: 240.0 mg/kg/injection, schedule: Q01DX005 (ip), vehicle: saline with Tween-80): 94 % of control

Structure (SMILES): CN(C)CCCNC(CC#N)CCC#N (centres undefined)
- T/C (dose: 50.0 mg/kg/injection, schedule: Q01DX009 (ip), vehicle: saline): 109 % of control
- T/C (dose: 100.0 mg/kg/injection, schedule: Q01DX009 (ip), vehicle: saline): 104 % of control
- T/C (dose: 200.0 mg/kg/injection, schedule: Q01DX009 (ip), vehicle: saline): 109 % of control

Structure (SMILES): C1CN1P1(N2CC2)=NP(N2CC2)(N2CC2)=NP(N2CC2)(N2CC2)=N1
- T/C (dose: 5.0 mg/kg/injection, schedule: Q01DX009 (ip), vehicle: saline): 231 % of control
- T/C (dose: 10.0 mg/kg/injection, schedule: Q01DX009 (ip), vehicle: saline): 222 % of control
- T/C (dose: 20.0 mg/kg/injection, schedule: Q01DX009 (ip), vehicle: saline): 122 % of control

Structure (SMILES): CC12C=CC(C)(C3C(=O)NC(=O)C31)C1C3C(=O)NC(=O)C3C12 (centres undefined)
- T/C [5]: 106 % of control
- T/C [2]: 109 % of control
- T/C [3]: 106 % of control
- T/C [4]: 109 % of control

Structure (SMILES): COC(=O)/C=C(\C=C/C(=O)O)C(=O)O
- T/C [6]: 104 % of control
- T/C [7]: 100 % of control
- T/C [8]: 95 % of control

Structure (SMILES): CN(CCCCn1cnc2ccccc21)N=O
- T/C (dose: 20.0 mg/kg/injection, schedule: Q01DX001 (ip), vehicle: Klucel (hydroxypropylcellulose) (HPC)): 110 % of control
- T/C (dose: 40.0 mg/kg/injection, schedule: Q01DX001 (ip), vehicle: Klucel (hydroxypropylcellulose) (HPC)): 102 % of control
- T/C (dose: 80.0 mg/kg/injection, schedule: Q01DX001 (ip), vehicle: Klucel (hydroxypropylcellulose) (HPC)): 110 % of control

Structure (SMILES): COc1cccc2cc(C)[nH]c12
- T/C (dose: 25.0 mg/kg/injection, schedule: Q01DX009 (ip), vehicle: saline with Tween-80): 97 % of control
- T/C (dose: 50.0 mg/kg/injection, schedule: Q01DX009 (ip), vehicle: saline with Tween-80): 97 % of control
- T/C (dose: 100.0 mg/kg/injection, schedule: Q01DX009 (ip), vehicle: saline with Tween-80): 103 % of control

Structure (SMILES): COc1cccc2c1C(=O)c1c(O)c3c(c(O)c1C2=O)C[C@@](O)(C(=O)CN1CCOCC1)C[C@@H]3OC1CC(N)C(O)C(C)O1 (some centres undefined)
- T/C (dose: 1.3 mg/kg/injection, schedule: Q01DX001 (ip), vehicle: water): 116 % of control
- T/C (dose: 1.56 mg/kg/injection, schedule: Q01DX009 (ip), vehicle: water): 103 % of control
- T/C (dose: 1.8 mg/kg/injection, schedule: Q01DX001 (ip), vehicle: water): 114 % of control
- T/C (dose: 2.4 mg/kg/injection, schedule: Q01DX001 (ip), vehicle: water): 116 % of control
- T/C (dose: 3.13 mg/kg/injection, schedule: Q01DX009 (ip), vehicle: water): 115 % of control
- T/C (dose: 3.2 mg/kg/injection, schedule: Q01DX001 (ip), vehicle: water): 119 % of control
- T/C (dose: 4.2 mg/kg/injection, schedule: Q01DX001 (ip), vehicle: water): 119 % of control
- T/C (dose: 5.56 mg/kg/injection, schedule: Q01DX009 (ip), vehicle: water): 156 % of control
- T/C (dose: 8.33 mg/kg/injection, schedule: Q01DX009 (ip), vehicle: water): 162 % of control
- T/C (dose: 10.0 mg/kg/injection, schedule: Q01DX001 (ip), vehicle: water): 119 % of control
- T/C (dose: 18.8 mg/kg/injection, schedule: Q01DX009 (ip), vehicle: water): 153 % of control
- T/C (dose: 50.0 mg/kg/injection, schedule: Q01DX001 (ip), vehicle: water): 162 % of control
- T/C (dose: 100.0 mg/kg/injection, schedule: Q01DX001 (ip), vehicle: water): 174 % of control

Structure (SMILES): O=C1Cc2ccccc2C(=O)N1NCCO
- T/C (dose: 100.0 mg/kg/injection, schedule: Q01DX001 (ip), vehicle: saline with Tween-80): 103 % of control
- T/C (dose: 200.0 mg/kg/injection, schedule: Q01DX001 (ip), vehicle: saline with Tween-80): 102 % of control
- T/C (dose: 400.0 mg/kg/injection, schedule: Q01DX001 (ip), vehicle: saline with Tween-80): 94 % of control

Structure (SMILES): Cc1ccc(N=C(c2ccccc2)C2C(=O)c3ccccc3C2=O)cc1
- T/C [6]: 97 % of control
- T/C [7]: 97 % of control
- T/C [8]: 94 % of control

Structure (SMILES): O=C1NC(=O)C2=C1NCCN2
- T/C (dose: 100.0 mg/kg/injection, schedule: Q04DX003 (ip), vehicle: saline): 107 % of control
- T/C (dose: 200.0 mg/kg/injection, schedule: Q04DX003 (ip), vehicle: saline): 104 % of control
- T/C (dose: 400.0 mg/kg/injection, schedule: Q04DX003 (ip), vehicle: saline): 99 % of control

Structure (SMILES): O=C(O)c1ccc(-c2nn[nH]n2)cc1
- T/C (dose: 6.25 mg/kg/injection, schedule: Q01DX009 (ip), vehicle: Klucel (hydroxypropylcellulose) (HPC)): 107 % of control
- T/C (dose: 12.5 mg/kg/injection, schedule: Q01DX009 (ip), vehicle: Klucel (hydroxypropylcellulose) (HPC)): 103 % of control
- T/C [5]: 110 % of control
- T/C [3]: 92 % of control
- T/C [4]: 89 % of control

Structure (SMILES): COc1ccc2c(NCCCCCCNc3c4ccccc4nc4cc(OC)ccc34)c3ccccc3nc2c1
- T/C (dose: 0.62 mg/kg/injection, schedule: Q## X009 (ip), vehicle: lactic acid): 151 % of control
- T/C (dose: 0.63 mg/kg/injection, schedule: Q01DX009 (ip), vehicle: other): 119 % of control
- T/C (dose: 1.25 mg/kg/injection, schedule: Q## X009 (ip), vehicle: lactic acid): 170 % of control
- T/C (dose: 2.5 mg/kg/injection, schedule: Q## X009 (ip), vehicle: lactic acid): 170 % of control
- T/C (dose: 5.0 mg/kg/injection, schedule: Q01DX009 (ip), vehicle: other): 154 % of control
- T/C (dose: 5.0 mg/kg/injection, schedule: Q## X009 (ip), vehicle: lactic acid): 164 % of control
- T/C (dose: 10.0 mg/kg/injection, schedule: Q01DX009 (ip), vehicle: other): 110 % of control
- T/C (dose: 10.0 mg/kg/injection, schedule: Q## X009 (ip), vehicle: lactic acid): 86 % of control

Structure (SMILES): O=C(O)c1[nH]c(=O)[nH]c(=O)c1F
- T/C (dose: 2.5 mg/kg/injection, schedule: Q01DX010 (ip), vehicle: saline): 110 % of control
- T/C (dose: 5.0 mg/kg/injection, schedule: Q01DX010 (ip), vehicle: saline): 160 % of control
- T/C (dose: 16.0 mg/kg/injection, schedule: Q01DX009 (ip), vehicle: saline): 100 % of control

Structure (SMILES): COC(=O)CCC(C(C)=O)C(=O)OC (centres undefined)
- T/C (dose: 60.0 mg/kg/injection, schedule: Q01DX005 (ip), vehicle: saline): 105 % of control
- T/C (dose: 120.0 mg/kg/injection, schedule: Q01DX005 (ip), vehicle: saline): 110 % of control
- T/C (dose: 240.0 mg/kg/injection, schedule: Q01DX005 (ip), vehicle: saline): 107 % of control

Structure (SMILES): O=C(/C=C/c1ccc(O)cc1)OCC1OC(Oc2cc(O)c3c(c2)OC(c2ccc(O)cc2)CC3=O)C(O)C(O)C1O (centres undefined)
- T/C (dose: 100.0 mg/kg/injection, schedule: Q04DX002 (ip), vehicle: saline): 107 % of control
- T/C (dose: 200.0 mg/kg/injection, schedule: Q04DX002 (ip), vehicle: saline): 94 % of control
- T/C (dose: 400.0 mg/kg/injection, schedule: Q04DX002 (ip), vehicle: saline): 107 % of control
